Molecular target: T1, FLT3 (N841I) (Homo sapiens, UniProt P36888, N841I)
T1 construct: host or cells: T7 phage in E. coli (BL21-derived) or HEK-293
T1 sequence (P36888 27-993 N841I): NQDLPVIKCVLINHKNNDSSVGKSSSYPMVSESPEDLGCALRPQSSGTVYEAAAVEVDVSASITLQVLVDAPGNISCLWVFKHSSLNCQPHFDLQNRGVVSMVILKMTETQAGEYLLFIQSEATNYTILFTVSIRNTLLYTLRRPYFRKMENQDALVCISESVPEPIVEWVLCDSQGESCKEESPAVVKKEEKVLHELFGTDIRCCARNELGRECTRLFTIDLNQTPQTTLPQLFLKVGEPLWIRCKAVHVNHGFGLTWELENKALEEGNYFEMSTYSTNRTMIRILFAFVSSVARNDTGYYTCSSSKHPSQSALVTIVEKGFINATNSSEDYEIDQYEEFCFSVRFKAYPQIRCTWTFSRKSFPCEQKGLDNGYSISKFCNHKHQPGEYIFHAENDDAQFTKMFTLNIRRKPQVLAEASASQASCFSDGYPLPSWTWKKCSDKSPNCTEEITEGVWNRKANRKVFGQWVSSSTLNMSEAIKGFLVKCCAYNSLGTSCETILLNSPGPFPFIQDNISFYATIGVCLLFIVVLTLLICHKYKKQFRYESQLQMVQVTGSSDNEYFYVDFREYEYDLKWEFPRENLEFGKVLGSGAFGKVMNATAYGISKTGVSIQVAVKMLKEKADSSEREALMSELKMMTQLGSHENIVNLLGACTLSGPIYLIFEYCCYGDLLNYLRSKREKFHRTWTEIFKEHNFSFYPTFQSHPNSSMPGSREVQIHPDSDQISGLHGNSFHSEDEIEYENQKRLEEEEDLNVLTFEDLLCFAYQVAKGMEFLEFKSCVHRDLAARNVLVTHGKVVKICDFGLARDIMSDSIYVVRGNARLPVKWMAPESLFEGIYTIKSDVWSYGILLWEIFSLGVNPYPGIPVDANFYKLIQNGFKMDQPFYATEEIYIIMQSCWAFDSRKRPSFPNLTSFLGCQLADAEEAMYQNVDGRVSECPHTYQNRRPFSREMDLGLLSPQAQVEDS
Test: KINOMEscan kinase binding assay, FLT3 (N841I)
Protocol: The kinase assay was conducted using KINOMEscan™.
Kinase-tagged T7 phage strains were grown in parallel in 24-well blocks in an E. coli host derived from the BL21 strain. E. coli were grown to log-phase and infected with T7 phage from a frozen stock (multiplicity of infection=0.4) and incubated with shaking at 32° C. until lysis (90-150 minutes). The lysates were centrifuged (6,000×g) and filtered (0.2 μm) to remove cell debris. The remaining kinases were produced in HEK-293 cells and subsequently tagged with DNA for qPCR detection. Streptavidin-coated magnetic beads were treated with biotinylated small molecule ligands for 30 minutes at room temperature to generate affinity resins for kinase assays. The liganded beads were blocked with excess biotin and washed with blocking buffer (SeaBlock (Pierce), 1% BSA, 0.05% Tween 20, 1 mM DTT) to remove unbound ligand and to reduce non-specific phage binding. Binding reactions were assembled by combining kinases, liganded affinity beads, and test compound (Compound 23) in 1× binding buffer (20% SeaBlock, 0.17×PBS, 0.05% Tween 20, 6 mM DTT). Test compound were prepared as 40× stocks in 100% DMSO and directly diluted into the assay. All reactions were performed in polypropylene 384-well plates in a final volume of 0.04 ml. […] The kinase concentration in the eluates was measured by qPCR. […]

Cc1ccc(C(=O)Nc2ccc(CN3CCN(C)CC3)c(C(F)(F)F)c2)cc1C#Cc1cnc2[nH]ncc2c1 [Compound 23, 3-(2-(1H-pyrazolo[3,4-b]pyridin-5-yl)ethynyl)-4-methyl-N-(4-((4-methylpiperazin-1-yl)methyl)-3-(trifluoromethyl)phenyl)benzamide]
% Ctrl@10 nM (10 nM): 2.9 % Ctrl
% Ctrl@100 nM (100 nM): 0.05 % Ctrl

Reference: US12233047B2, “Pharmaceutical combination and use thereof” (ASCENTAGE PHARMA (SUZHOU) CO., LTD., priority 2019, dated 2025)
